US6020336A, “Indole and indazole compounds” (priority 1997, dated 2000)
Structures can show the parent of a compound that is named as a salt.

What was measured:
[1] = test system: saphenous vein of rabbits; assay: Contraction of the saphenous vein isolated from rabbit; details: Oryctolagus cuniculus, rabbit saphenous vein rings; for Emax: % relative to the maximum effect induced by KCl (100 mM), read-out: maximum response (contraction of the saphenous vein); for EC50: cumulative doses 10^-9 to 10^-4 M, 37° C., tension as % of KCl maximum
Procedure: (§1) The activity of the compounds of the invention has been evaluated in a pharmacological test that measures their potential for contracting the saphenous vein isolated from a dog or rabbit, as described by Humphrey et al. (Br. J. Pharmacol., 94, 1123, 1988).
(§2) The test are carried out on saphenous veins of dogs (10-25 kg) or of rabbits (2-3 kg) which have ben anaesthetised with pentobarbital (30 mg/kg i.v.). The saphenous veins are removed quickly and cut into rings. The rings are mounted between two hooks in vessels maintained at 37° C. containing physiological saline (composition in mM:NaCl 118.3; KCl 4.7; CaCl2 2.5; MgSO4 1.2; KH2 PO4 1.2; NaHCO3 25.0; Ca-EDTA 0.026 and glucose 11.1).
(§3) A mixture of 95% O2 --5% CO2 is bubbled through the physiological saline solution. The lower hook consists of the fixed point whilst the upper hook is connected to an isometric force sensor. The tissues are subjected to a base tension of 1.5 grammes (dog) and of 1 gramme (rabbit). The test pharmacological substances are prepared immediately prior to use; they are solubilised in water or in dimethyl sulphoxide.
(§4) After being mount, the preparations are left to rest for 60 minutes, rinsing operations being carried out every 30 minutes. The organ is then placed in the presence of phenoxybenzamine (5×10^-8 M) for 20 minutes. That agent is eliminated by a number of successive washing operations over the course of 45 minutes. After readjustment of the base tension, contraction is brought about by KCl (100 mM). After washing and return to the base line, contraction is induced by 5-hydroxytryptamine (10^-5 M).
(§5) After washing and return to the base line, a dose/response curve for the pharmacological substances is produced by the addition of cumulative doses (10^-9 to 10^-4 M).
(§6) The test enables the 50% effective concentration (EC50) of the compounds of the invention to be determined.
The EC50 is calculated in the following manner: the tension values are first converted into percentages relative to the maximum effect induced by KCl. The effective concentration 50% (ED50) is determined by non-linear regression according to the model of the law of mass action of Michaelis-Menten.

saphenous vein of dogs = assay: Contraction of the saphenous vein isolated from dog; details: Canis lupus familiaris, dog saphenous vein rings
Procedure: as §1, §2, §3, §4, §5, §6
The EC50 is calculated in the following manner: the tension values are first converted into percentages relative to the maximum effect induced by KCl. […]

| Structure (SMILES) | Emax [1] [%] | EC50 [1] [nM] | Emax (saphenous vein of dogs; % relative to the maximum effect induced by KCl (100 mM), read-out: maximum response (contraction of the saphenous vein)) [%] | EC50 (saphenous vein of dogs; cumulative doses 10^-9 to 10^-4 M, 37° C., tension as % of KCl maximum) [nM] | Emax at 100 µM (saphenous vein of dogs; 100 μM, % relative to the maximum effect induced by KCl (100 mM), read-out: maximum contraction at a concentration of 100 μM) [%] |
| --- | --- | --- | --- | --- | --- |
| CN(C)CCn1ncc2ccc(-n3cnnc3)cc21 [Example 6, 1-(Dimethylaminoethyl)-6-([1,2,4]triazol-4-yl)indazole dihydrochloride] | 87 | 120 | 47 | 170 |  |
| COc1cncnc1N1CCN(CCCn2ccc3ccc(-n4cnnc4)cc32)CC1 [Example 5, 1-{3-[4-(5-Methoxypyrimidin-4-yl)piperazin-1-yl]propyl}-6-([1,2,4]-triazol-4-yl)indole dihydrochloride] | 75 | 300 |  |  | 6 |
